In patent USRE40594E1, “Inhibitors of the bitter taste response” (Mount Sinai School of Medicine of New York University, priority 1998, dated 2008):
Entries after “also recorded” stand apart in the source; their conditions may differ.

How the values were obtained:
[1] = test system: bovine taste receptor cell membranes (taste receptors) with transducin; experiment: G protein activation assay (trypsin sensitivity): activation of transducin by bitter tastant plus taste membranes; type: biochemical, Bovine (Bos primigenius)
Excerpt: Taste receptor is contacted with gustducin or transducin and tastant, in the presence or absence of test inhibitor, under conditions suitable for activation of the G-protein present. […] In specific non-limiting embodiments, a subunits of transducin or gustducin may be combined with βγ subunits prior to this step, as set forth above. To the reaction mixture comprising taste receptors and gustducin or transducin, test inhibitor and/or bitter tastant may be added, and the resulting solution incubated to permit interaction of the elements.
In preferred embodiments, activation is assessed by a trypsin digestion assay. […] In a specific, non-limiting example, to perform a trypsin digestion assay according to the invention, TPCK-treated trypsin (1:25 trypsin to total protein in the reaction mixture) may be added, and the digestion may be performed at room temperature for about 15 minutes and stopped by adding soybean trypsin inhibitor (6:1 mol/mol inhibitor to trypsin). […] The separated polypeptides may then be transferred by electro-blotter to a poly (vinylidene difluoride) membrane blocked by the addition of 5% BLOTTO [50 mM Tris-HCI, pH 7.4/100 mM NaCl/5% nonfat dry milk], (30 min). G-protein peptides may then be visualized by binding of antibody directed toward transducin or gustducin, followed, for example, by binding of a detectably labeled secondary antibody. If a horseradish peroxidase-labeled secondary antibody is used, binding may be visualized by developing with bicinchoninic acid staining reagents and exposure to x-ray film.
G Protein Activation Assays. Bovine (Bos primigenius) tongues were collected fresh from a local slaughterhouse and transported on ice to the laboratory. Circumvallate papillae were hand dissected, frozen in liquid nitrogen, and stored at −80° C. until use. […] The pelleted membranes were rinsed twice, resuspended in homogenization buffer lacking protease inhibitors, and further homogenized by 20 passages through a 25-gauge needle. Aliquots were either flash frozen or stored on ice until use. […] The separated polypeptides were transferred by electro-blotter to a poly (vinylidene difluoride) membrane, which was blocked by the addition of 5% BLOTTO [50 mM Tris-HCI, pH 7.4/100 mM NaCl/5% nonfat dry milk], (30 min), then transducin peptides were visualized by binding of transducin antiserum and horseradish peroxidase-labeled goat anti-rabbit secondary antibody, followed by developing with bicinchoninic acid staining reagents from Bio-Rad and exposure to x-ray film.
Chemicals. All bitter tastant and buffer chemicals were of the highest purity available and were purchased either from Sigma or Boehringer Mannheim, unless otherwise noted. […] The rabbit polyclonal antitransducin antibody was a kind gift of Mel Simon and John Watson (California Institute of Technology, Pasadena, Calif.).

[2] = test system: C57BL/6J mice; experiment: Forty-eight-hour two-bottle preference test (behavioral assay); type: in vivo
Protocol: Behavioral Assays. Multiple sets of male C57BL/6J mice from the Jackson Laboratory were tested. Each set (n=10) was tested with tastant±AMP or GMP. Between tests, mice were provided with acidified water (pH 4.5) for about 2 wk. Tested mice ranged in age from 8 to 20 wk. Mice were individually housed, provided with food ad libitum (Pico Lab Mouse Diet 20 no. 5058; PMI Feeds, St. Louis, Mo.) and presented with distilled water in two sipper bottles for 48 h before testing. During each 48-h test period, a given concentration of tastant was provided in one sipper bottle, whereas the other had distilled water. After 24 h, volumes consumed were recorded, the bottles refilled, and positions reversed (to control for positional cues). Tastants were presented in ascending concentration. Preference ratios were calculated as the fraction of tastant consumed as a percentage of the total volume of liquid consumed. Mean preference ratios and Student's t tests were calculated from total collected data.

Nc1ncnc2c1ncn2[C@@H]1O[C@H](COP(=O)(O)O)[C@@H](O)[C@H]1O [AMP, adenosine 5′ monophosphate]
inhibition of activation of transducin by QUI plus bovine taste membranes ([1]; 1.0 mM QUI, AMP 0.01-2.5 mM, FIG. 1B): inhibit; also recorded: inhibited in a dose-dependent fashion
inhibition of taste membrane-dependent activation of transducin by atropine hydrochloride ([1]; AMP 2.5 mM, ATR 5.0 mM, FIG. 1C): inhibits; also recorded: inhibitory effect
inhibition of taste membrane-dependent activation of transducin by DEN ([1]; AMP 2.5 mM, DEN 5.0 mM, FIG. 1C): inhibits; also recorded: inhibitory effect
inhibition of taste membrane-dependent activation of transducin by nicotine hemisulfate ([1]; AMP 2.5 mM, NIC 5.0 mM, FIG. 1C): inhibits; also recorded: inhibitory effect
inhibition of taste membrane-dependent activation of transducin by QUI ([1]; AMP 2.5 mM, QUI 1.0 mM, FIG. 1C): inhibits; also recorded: inhibitory effect
inhibition of taste membrane-dependent activation of transducin by strychnine hydrochloride ([1]; AMP 2.5 mM, STR 5.0 mM, FIG. 1C): inhibits; also recorded: inhibitory effect
inhibition of in vitro activation of transducin (G-protein) by taste membranes plus bitter compounds, summary statement ([1]; DEN, QUI and other bitter compounds, concentrations not given): inhibits
inhibition of taste membrane activation of transducin by caffeic acid ([1]; concentrations not given): inhibitory effect
inhibition of taste membrane activation of transducin by naringin ([1]; concentrations not given): inhibitory effect
inhibition of taste membrane activation of transducin by quinacrine ([1]; concentrations not given): inhibitory effect
inhibition of taste membrane activation of transducin by sparteine ([1]; concentrations not given): inhibitory effect
inhibition of activation of transducin by DEN plus bovine taste receptor membranes ([1]; inhibitor 0.25, 0.5, 1.25, 2.5, 5.0 mM, DEN 5.0 mM, shift from 32-kDa to 23-kDa fragments, FIG. 1A/1E): inhibit; also recorded: inhibited in a dose-dependent fashion
shift of DEN dose-aversiveness curve ([2]; AMP 0.1, 1.0, 5.0 mM, FIG. 3B): shifted the dose-aversiveness curve to the right
concentration at which AMP alone elicits behavioral responses ([2]; AMP alone, two-bottle preference, FIG. 3B): ≥ 0.5 mM
inhibitory effect on aversive responses at highest concentration of DEN ([2]; DEN 5.0 mM, FIGS. 3A-B): eliminated; also recorded: overcame
inhibition of aversive responses to DEN ([2]; DEN 0.05, 0.10, 0.50, 1.0 mM, inhibitor 0.1 and 1.0 mM, n=10, P<0.001, FIG. 3A): inhibited
inhibition of behavioral (aversive) responses to bitter compounds, summary statement ([2]; DEN, QUI and other bitter compounds): blocks
effect on behavioral responses to HCl ([2]; HCl 0.01 and 0.10 mM, 0.1 mM AMP, FIG. 3E): did not alter; also recorded: did not affect
effect on behavioral responses to NaCl ([2]; NaCl 0.1 and 0.3 M, 0.1 mM AMP, FIG. 3E): did not alter; also recorded: did not affect
inhibitory effect on aversive responses at highest concentration of QUI ([2]; QUI 1.0 mM, FIGS. 3C-D): eliminated; also recorded: overcame
inhibition of aversive responses to QUI ([2]; QUI 0.05, 0.10, 0.50 mM, inhibitor 0.1 and 0.5 mM, n=10, P<0.001, FIG. 3C): inhibited
effect on behavioral responses to SC45647 ([2]; SC45647 0.01 and 0.10 mM, 0.1 mM AMP, FIG. 3E): did not alter; also recorded: did not affect; also recorded: did not diminish
inhibition of aversive responses to sparteine (SPA) ([2]; SPA 0.05 and 0.10 mM, 0.1 mM AMP, P<0.001, FIG. 3E): inhibited
inhibition of aversive responses to (−)-epicatechin ([2]; epicatechin 0.05 and 0.10 mM, 0.1 mM AMP, P<0.01, FIG. 3E): inhibited
shift of QUI dose-aversiveness curve ([2]; increasing concentrations of AMP, FIG. 3D): shifted the dose-aversiveness curve to the right
effect on behavioral responses to sucrose ([2]; sucrose 5.0 and 150 mM, 0.1 mM AMP, FIG. 3E): did not alter; also recorded: did not affect
